Data reported in paper PMC3432147 (Bioorganic & medicinal chemistry letters, 2012).
Converted amounts (≈) assume the structure as drawn.

Columns and labels:
[1] = In vitro metabolic stability in human liver microsomes; conditions: for Stability (% remaining): human liver microsomal protein 0.125 mg, NADPH generating system, 37°C, 60 min, parent by LC-MS/MS, triplicate; for fold improved metabolic stability compared to compound 6: versus compound 6; for fold lower stability compared to compound 13: versus compound 13
Solubility in water = type: physicochemical; conditions: for fold improved water solubility compared to alkyl substituted inhibitors (4 or 6): versus compounds 4 or 6
Human sEH = target: T1, Human sEH (Homo sapiens, UniProt P34913); assay: Inhibition of human sEH, fluorescent substrate assay; type: biochemical
T1 sequence (P34913 1-555): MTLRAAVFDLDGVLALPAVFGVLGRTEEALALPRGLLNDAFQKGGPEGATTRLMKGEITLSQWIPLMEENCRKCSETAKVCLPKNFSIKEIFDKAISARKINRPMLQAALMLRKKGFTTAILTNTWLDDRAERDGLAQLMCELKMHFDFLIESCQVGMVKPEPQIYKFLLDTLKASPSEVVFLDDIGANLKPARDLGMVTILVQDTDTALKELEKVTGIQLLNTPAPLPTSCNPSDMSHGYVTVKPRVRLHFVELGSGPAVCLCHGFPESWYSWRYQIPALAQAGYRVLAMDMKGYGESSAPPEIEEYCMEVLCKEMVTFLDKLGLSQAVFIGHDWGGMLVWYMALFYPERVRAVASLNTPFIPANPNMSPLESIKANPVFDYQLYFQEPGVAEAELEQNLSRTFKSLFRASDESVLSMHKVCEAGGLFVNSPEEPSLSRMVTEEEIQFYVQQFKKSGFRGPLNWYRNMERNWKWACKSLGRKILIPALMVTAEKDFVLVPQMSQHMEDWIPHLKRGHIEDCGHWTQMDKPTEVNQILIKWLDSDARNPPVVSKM

Row | Compound | Stability (% remaining) [1] [% remaining] | fold improved metabolic stability compared to compound 6 ([1]; human liver microsomes) [fold] | fold lower stability compared to compound 13 ([1]; human liver microsomes) [fold] | other results
1 | CCCCC(CC)OC(=O)C1CCCC(NC(=O)NC23CC4CC(CC(C4)C2)C3)C1 (stereo not drawn) [Compound 12] | 10 | 2.5 | 3 | –
2 | CCCCCOC(=O)CCCNC(=O)NC12CC3CC(CC(C3)C1)C2 [Compound 4] | <1 | – | – | metabolism in human liver microsomal incubation ([1]; human liver microsomes): all metabolized to the corresponding butyric acid
3 | O=C(O)CCCNC(=O)NC12CC3CC(CC(C3)C1)C2 [Compound 3, 4-(3-adamantan-1-yl-ureido)-butyric acid] | 97 | – | – | solubility at 24 h (Solubility in water; sodium phosphate buffer, pH 7.4): 7 µg/mL (≈ 25 µM); parent acid determined after microsomal incubation ([1]; human liver microsomes): > 95%
4 | CCCCC(C#N)OC(=O)CCCNC(=O)NC12CC3CC(CC(C3)C1)C2 (stereo not drawn) [Compound 7] | – | – | – | fold decrease in inhibition potency in comparison with methyl (5) or ethyl (6) (Human sEH; versus compounds 5 or 6): 3 fold
5 | CCOCCOCC(OC(=O)CCCNC(=O)NC12CC3CC(CC(C3)C1)C2)c1ccccc1 (stereo not drawn) [Compound 9] | 14 | > 2.5 | ~2 | fold improved water solubility compared to alkyl substituted inhibitors (4 or 6) (Solubility in water): 20–45 fold
6 | CCOCCOCCOC(=O)CCCNC(=O)NC12CC3CC(CC(C3)C1)C2 [Compound 8] | 10 | > 2.5 | 3 | fold reduction in inhibition compared to compounds 4, 5 and 6 (Human sEH; versus compounds 4, 5 and 6): 7–17 fold
7 | CCCCC(C)OC(=O)CCCNC(=O)NC12CC3CC(CC(C3)C1)C2 (stereo not drawn) [Compound 5] | – | – | – | fold improvement in inhibition potency compared to compound 4 (Human sEH; versus compound 4): 2.5 fold
8 | CCOCCOCC(OC(=O)C1CCCC(NC(=O)NC23CC4CC(CC(C4)C2)C3)C1)c1ccccc1 (stereo not drawn) [Compound 13] | 32 | – | – | fold improved water solubility compared to alkyl substituted inhibitors (4 or 6) (Solubility in water): 20–45 fold; fold improved stability compared to compound 9 ([1]; human liver microsomes, versus compound 9): ~2 fold
9 | O=C(NC1CCCC(C(=O)O)C1)NC12CC3CC(CC(C3)C1)C2 (stereo not drawn) [Compound 10, 3-(3-adamantan-1-yl-ureido)-cyclohexylcarboxylic acid] | 95 | – | – | parent acid determined after microsomal incubation ([1]; human liver microsomes): > 95%
10 | CCCCC(CC)OC(=O)CCCNC(=O)NC12CC3CC(CC(C3)C1)C2 (stereo not drawn) [Compound 6] | 4 | – | – | –
